pIC50: −log10 of the molar value. Like-named read-outs stand apart in the source and are kept apart here.
What was measured:
HTT mRNA = experiment: RT-qPCR splicing assay, HTT mRNA canonical (CJ) and alternative (AJ) junction; assay type: cell-based, human; conditions: Homo sapiens
In short: (§1)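 Both isoforms, CJ and AJ, read by qPCR from crude lysates of treated A673 or K562 cells; 24 h, 37 °C, maximum 10 uM. Normalization: housekeeper ΔCt, then DMSO ΔΔCt.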

MYB mRNA = experiment: RT-qPCR splicing assay, MYB mRNA canonical (CJ) and alternative (AJ) junction; assay type: cell-based, human; conditions: Homo sapiens
In short: as §1

SMN2 mRNA = experiment: RT-qPCR splicing assay, SMN2 mRNA; assay type: cell-based, human; conditions: Homo sapiens, canonical junction qPCR panel, Table 4; read-out: SMN2 IC50 (decrease in CJ mRNA levels)
In short: as §1

Target C = experiment: RT-qPCR canonical junction panel assay, Target C mRNA; assay type: cell-based; conditions: Table 4, read-out: Target C IC50 (decrease in CJ mRNA levels)
Protocol: Compounds described herein were used to modulate RNA transcript abundance in cells. The expression of a target mRNA was measured by detecting the formation of an exon-exon junction in the canonical transcript (CJ). A compound mediated exon-inclusion event was detected by observing an increase in formation of a new junction with an alternative exon (AJ). Real-time qPCR assays were used to detect these splicing switches and interrogate the potency of various compounds towards different target genes. A high-throughput real time quantitative PCR (RT-qPCR) assay was developed to measure these two isoforms of the mRNA (CJ and AJ) for exemplary genes, such as HTT, SMN2, and MYB, together with a control housekeeping gene, GAPDH or GUSB or PPIA, used for normalization. Briefly, the A673 or K562 cell line was treated with various compounds described herein (e.g., compounds of Formula (I)). After treatment, the levels of the HTT, MYB, or SMN2 mRNA targets were determined from each sample of cell lysate by cDNA synthesis followed by qPCR.
The data analysis was performed by first determining the ΔCt vs the housekeeper gene. This ΔCt was then normalized against the DMSO control (ΔΔCt) and converted to RQ (relative quantification) using the 2^(−ΔΔCt) equation. The RQ were then converted to a percentage response by arbitrarily setting an assay window of 3.5 and 4.0 ΔCt for HTT-CJ and MYB-CJ respectively and an assay window of 9 and 3 ΔCt for HTT-AJ and MYB-AJ in 96 well format (50,000 K562 cells/well and 15,000 A673 cells per well) and an assay window of 3 and 4 ΔCt for HTT-CJ and MYB-CJ respectively and an assay window of 5 and 3 ΔCt for HTT-AJ and MYB-AJ respectively in 384 well format (8,000 K562 cells/well example). […] The percentage response was then fitted to the 4 parametric logistic equation to evaluate the concentration dependence of compound treatment. The increase in AJ mRNA is reported as AC50 (compound concentration having 50% response in AJ increase) while the decrease in CJ mRNA levels is reported as IC50 (compound concentration having […] in CJ decrease).
Additional studies were carried out for a larger panel of genes using the protocol provided above. The junction between flanking upstream and downstream exons was used to design canonical junction Qpcr assays. At least one of the forward primer, reverse primer or the CY5-labeled 5′ nuclease probe (with 3′ quencher such as ZEN/Iowa Black FQ) was designed to overlap with the exon junction to capture the CJ Mrna transcript. BLAST was used to confirm the specificity of the probeset and parameters suCH As melting temperature, GC content, amplicon size, and primer dimer formation are considered during their design. Data for the decrease in CJ Mrna levels for four exemplary genes (HTT, SMN2, MYB, and Target C) analyzed in this panel are reported as IC50 (compound concentration having […] in CJ decrease).

K562 cells = experiment: Cell Titer Glo 2.0 cell viability (toxicity) assay, K562; conditions: 500 cells/well, 72 hours
[1] = RT-qPCR, HTT alternative junction mRNA increase, read-out: HTT AJ (increase in alternative junction mRNA, AC50)
[2] = RT-qPCR, HTT canonical junction mRNA decrease, read-out: HTT CJ (decrease in canonical junction mRNA, IC50)
[3] = canonical junction qPCR panel, Table 4, read-out: HTT IC50 (decrease in CJ mRNA levels)
[4] = RT-qPCR, MYB alternative junction mRNA increase, read-out: MYB AJ (increase in alternative junction mRNA, AC50)
[5] = RT-qPCR, MYB canonical junction mRNA decrease, read-out: MYB CJ (decrease in canonical junction mRNA, IC50)
[6] = canonical junction qPCR panel, Table 4, read-out: MYB IC50 (decrease in CJ mRNA levels)
[7] = HTT alternative junction mRNA, RT-qPCR, read-out: HTT AJ (increase in AJ mRNA, AC50)
[8] = HTT canonical junction mRNA, RT-qPCR, read-out: HTT CJ (decrease in CJ mRNA levels, IC50)
[9] = MYB alternative junction mRNA, RT-qPCR, read-out: MYB AJ (increase in AJ mRNA, AC50)
[10] = MYB canonical junction mRNA, RT-qPCR, read-out: MYB CJ (decrease in CJ mRNA levels, IC50)

Compound	pIC50 (HTT mRNA; [2])	pIC50 (HTT mRNA; [3])	pIC50 (MYB mRNA; [5])	pIC50 (MYB mRNA; [6])	pIC50 (SMN2 mRNA)	pIC50 (Target C)	pIC50 (HTT mRNA; [8])	pIC50 (MYB mRNA; [10])	AC50 (HTT mRNA; [1])	AC50 (MYB mRNA; [4])	Effect of Exemplary Compounds on Cell Viability, K562 (K562 cells)	AC50 (HTT mRNA; [7])	AC50 (MYB mRNA; [9])
CCc1nc2cc(O)c(-c3ccc4nc(N5CC[C@H](NC(C)(C)C)C5)ccc4n3)cc2o1 (single isomer, unassigned) [Compound 809]	5.00 to 6.00	5.00 to 6.00	5.00 to 6.00	5.00 to 6.00	5.00 to 6.00	5.00 to 6.00			1 to 10 µM	1000 to 10000 nM	C (C represents 1000-9999 nM)		
Cc1c(O)c(-c2ncc3cc(N4C[C@H](C)NC5(CC5)C4)ccc3n2)cc2cn(C)nc12 (single isomer, unassigned) [Compound 810]	5.00 to 6.00	5.00 to 6.00	6.00 to 7.00	6.00 to 7.00	> 7.00	5.00 to 6.00			1 to 10 µM	100 to 1000 nM	B (B represents 100-1000 nM)		
Cc1c(O)c(-c2ncc3cc(N4C[C@@H](C)NC5(CC5)C4)ccc3n2)cc2cn(C)nc12 (single isomer, unassigned) [Compound 811]	5.00 to 6.00	5.00 to 6.00	> 7.00	> 7.00	> 7.00	< 5.00			1 to 10 µM	< 100 nM	B (B represents 100-1000 nM)		
C[C@H]1CN(c2ccc3nc(-c4cc5cn(C)nc5cc4O)ncc3c2)CC2(CC2)N1 (single isomer, unassigned) [Compound 812]	5.00 to 6.00	5.00 to 6.00	6.00 to 7.00	6.00 to 7.00	> 7.00	5.00 to 6.00			1 to 10 µM	100 to 1000 nM	B (B represents 100-1000 nM)		
C[C@@H]1CN(c2ccc3nc(-c4cc5cn(C)nc5cc4O)ncc3c2)CC2(CC2)N1 (single isomer, unassigned) [Compound 813]	< 5.00	< 5.00	6.00 to 7.00	6.00 to 7.00	> 7.00	< 5.00			> 10 µM	100 to 1000 nM	B (B represents 100-1000 nM)		
Cc1cn2cc(-c3ncc4cc(N5C[C@@H](C)NC6(CC6)C5)ccc4n3)cc(F)c2n1 (single isomer, unassigned) [Compound 815]	5.00 to 6.00	5.00 to 6.00	6.00 to 7.00	6.00 to 7.00	> 7.00	< 5.00			1 to 10 µM	100 to 1000 nM	B (B represents 100-1000 nM)		
C[C@H]1CN(c2ccc3nc(-c4cc(F)c5nncn5c4)ncc3c2)C[C@H](C)N1 (single isomer, unassigned) [Compound 820]	< 5.00	< 5.00	5.00 to 6.00	5.00 to 6.00	6.00 to 7.00	< 5.00			> 10 µM	1000 to 10000 nM	C (C represents 1000-9999 nM)		
Cc1nc2c(F)cc(-c3ncc4cc(N5C[C@H](C)N[C@@H](C)C5)ccc4n3)cn2c1F (single isomer, unassigned) [Compound 822]	5.00 to 6.00	5.00 to 6.00	6.00 to 7.00	6.00 to 7.00	6.00 to 7.00	5.00 to 6.00			> 10 µM	1000 to 10000 nM	B (B represents 100-1000 nM)		
CN(c1ccc2nc(-c3cc4cn(C)nc4cc3O)ccc2n1)C1CC(C)(C)N(C)C(C)(C)C1 [Compound 130]		< 5.00		< 5.00	6.00 to 7.00	< 5.00	< 5.00	< 5.00				> 10 µM	> 10000 nM
COc1cc2nc(C3CCNCC3)ccc2nc1-c1cc2c(C)nc(C)cn2n1 [Compound 343, 2-{4,6-dimethylpyrazolo[1,5-a]pyrazin-2-yl}-3-methoxy-6-(piperidin-4-yl)-1,5-naphthyridine]		5.00 to 6.00		5.00 to 6.00	> 7.00	< 5.00	5.00 to 6.00	5.00 to 6.00				1 to 10 µM	1000 to 10000 nM
C[C@@H]1CN(c2ccc3nc(-c4cc(F)c5nn(C)cc5c4)ncc3c2)C[C@H](C)N1 [Compound 780, 6-[(3R,5S)-3,5-dimethylpiperazin-1-yl]-2-(7-fluoro-2-methylindazol-5-yl)quinazoline]	5.00 to 6.00	5.00 to 6.00	6.00 to 7.00	6.00 to 7.00	> 7.00	5.00 to 6.00			1 to 10 µM	100 to 1000 nM	B (B represents 100-1000 nM)		

Now from value to compound, other results behind:

pIC50 (HTT mRNA; [2])	pIC50 (HTT mRNA; [3])	pIC50 (MYB mRNA; [5])	pIC50 (MYB mRNA; [6])	pIC50 (SMN2 mRNA)	pIC50 (Target C)	pIC50 (HTT mRNA; [8])	pIC50 (MYB mRNA; [10])	Compound	AC50 (HTT mRNA; [1])	AC50 (MYB mRNA; [4])	Effect of Exemplary Compounds on Cell Viability, K562 (K562 cells)	AC50 (HTT mRNA; [7])	AC50 (MYB mRNA; [9])
6.00 to 7.00	6.00 to 7.00	> 7.00	> 7.00	> 7.00	6.00 to 7.00			C[C@H]1CN(c2cc(F)c3nc(-c4cc(F)c5nn(C)cc5c4)ccc3c2)CCN1 (single isomer, unassigned) [Compound 789]	0.1 to 1 µM	< 100 nM	B (B represents 100-1000 nM)		
5.00 to 6.00	5.00 to 6.00	5.00 to 6.00	5.00 to 6.00	6.00 to 7.00	5.00 to 6.00			CCc1nc2cc(O)c(-c3ccc4nc(N5CC[C@@H](NC(C)(C)C)C5)ccc4n3)cc2o1 (single isomer, unassigned) [Compound 808]	1 to 10 µM	1000 to 10000 nM	C (C represents 1000-9999 nM)		
6.00 to 7.00	6.00 to 7.00	6.00 to 7.00	6.00 to 7.00	> 7.00	< 5.00			Cc1cn2cc(-c3ncc4cc(N5C[C@H](C)NC6(CC6)C5)ccc4n3)cc(F)c2n1 (single isomer, unassigned) [Compound 814]	1 to 10 µM	100 to 1000 nM	B (B represents 100-1000 nM)		
6.00 to 7.00	6.00 to 7.00	> 7.00	> 7.00	> 7.00	5.00 to 6.00			Cc1cn2cc(-c3ncc4cc(N5C[C@H](C)N[C@@H](C)C5)ccc4n3)cc(Cl)c2n1 (single isomer, unassigned) [Compound 818]	1 to 10 µM	< 100 nM	A (A represents <100 nM)		
	> 7.00		> 7.00	> 7.00	> 7.00	> 7.00	> 7.00	Cc1nc2c(C)c(O)c(-c3ccc4nc(N5CC[C@@H](NC(C)C)C5)ncc4n3)cc2o1 [Cmpd 415]				< 0.1 µM	< 100 nM

Reference: US20250092065A1, “2-(INDAZOL-5-YL)-6-(PIPERIDIN-4-YL)-1,7-NAPHTHYRIDINE DERIVATIVES AND RELATED COMPOUNDS AS MODULATORS FOR SPLICING NUCLEIC ACIDS AND FOR THE TREATMENT OF PROLIFERATIVE DISEASES” (REMIX THERAPEUTICS INC., priority 2022, published 2025)
